Measurements: patent US20150125904A1, “PROBE INCORPORATION MEDIATED BY ENZYMES” (Massachusetts Institute of Technology, priority 2012, published 2015)
Where two headings read alike, the source gives them in different places. One block for each compound: values may come before it.

What was measured:
[1] = biological target: T1, WTLplA / LAP-YFP in HEK cells (Escherichia coli, UniProt P32099); assay: Azide ligation yield in cells (native gel shift of LAP-YFP), wild-type LplA; assay type: cell-based, E. coli
T1 construct: expressed in transfected cells; host or cells: HEK cells
Description: (§1) For azide 7 ligation, cells were transfected with 50 ng WTLplA and 1000 ng pcDNA3-LAP-YFP. For azide 9 ligation, cells were transfected with 500 ng W37ILplA and either 1000 ng pcDNA3-LAP-YFP or pcDNA3-LAP(K⋄A)-YFP using Lipofectamine 2000 (Life Technologies). The LplA:LAP plasmid ratios are identical to the conditions used for imaging. 18 hr after transfection, cells were incubated in growth media (MEM supplemented with 10% FBS) containing 200 μM azide 7 or azide 9 for 30 min or 1 hr at 37° C. Excess azide probe was washed out over 1 hr. […] Cells were then centrifuged at 13,000 rpm for 2 min, and the supernatant was analyzed on a 12% polyacrylamide native gel without SDS (5 μL lysate per lane) at constant 200 V. Prior to Coomassie staining, in-gel fluorescence of YFP was visualized on a FUJIFILM FLA-9000 instrument using LD473 laser and Long Pass Blue (LPB) filter. […]
(§2) We also used a gel shift assay as a separate readout of azide ligation yield inside cells. […] The yield of azide ligation to LAP-YFP was determined by shift on a native polyacrylamide gel. The unmodified fusion protein, visualized by YFP fluorescence, runs at an apparent molecular weight of ˜42 kD. […]

[2] = In vitro second-order Diels-Alder cycloaddition rate constant; settings: DPBS, pseudo-first-order approximation
Description: Ligation reaction was allowed to proceed at 30° C. for 4 hours to maximize ligation yield. The mixture was then resolved by preparatory HPLC on a C-18 column (25-45% acetonitrile over 30 min. linear gradient, supplemented with 0.1% v/v trifluoroacetic acid), where the product eluted at 19 min. and its identity confirmed by ESI mass spectrometry. The eluate was freeze-dried into a white powder and dissolved in DPBS for subsequent measurements.
To measure second-order rate constant by pseudo-first-order approximation, 100 μL Tz1- or Tz2-fluorescein (100 nM in DPBS) was loaded into an opaque, flat-bottom 96-well plate (Greiner Bio One), then mixed with 100 μL LAP-TCO2 (3.3 μM in DPBS). The fluorescence intensity at 520 nm was immediately recorded at 9-second intervals until the reaction reached completion in approximately 5 minutes. The fluorescence intensity was then converted to [tetrazine-fluorescein], assuming that initial fluorescence corresponded to 50 nM and final fluorescence corresponded to 0 nM tetrazine-fluorescein. […] Measurements were performed in triplicate.

[3] = Tetrazine-dye fluorescence turn-on after Diels-Alder cycloaddition; assay type: physicochemical; settings: DPBS pH 7.4, >100-fold excess TCO1
Description: Tetrazine-fluorophore conjugates were dissolved in Dulbecco's phosphate buffered saline, pH 7.4 at approximately 100 nM concentration. Solutions with >100-fold excess TCO1 in DMSO or DMSO vehicle alone added were transferred into an opaque, flat-bottom 96-well plate (Greiner Bio One) and their fluorescence emission scanned with a Safire Tecan fluorescence microplate reader. Excitation was fixed at 430 nm for fluorescein, 530 nm for TMR, and 610 nm for Alexa 647. Fold-changes in fluorescence turn-on are reported at respective fluorescence emission maximum wavelengths.

[4] = test system: LAP-LDL receptor on HEK cells; assay: Live cell surface fluorogenic labeling without dye washout; assay type: cell-based, human; settings: 50 nM, without rinsing
Description: After 5 rinses with Tyrode's buffer, the chamber was placed on the microscope objective covered with 200 μL of the same buffer. Image acquisition sequence was initiated immediately after 200 μL of 100 nM Tz1-fluorescein in Tyrode's buffer was added to the chamber, and briefly mixed by pipeting. Final concentration of Tz1-fluorescein was therefore 50 nM after mixing. LAP-LDL receptor and a mCherry fluorescent protein transfection marker were transfected at a 1:1 ratio, with altogether 400 ng plasmid per 1 cm^2 culture.
To quantify the imaging signal/noise ratio, 17 cells with obvious surface fluorescence (by eye) at the 180 sec. time point were chosen and separate masks created automatically by the Slidebook software over the fluorescent rims. The averaged pixel intensity was defined as “signal”. To measure noise, 10 cells with no obvious surface fluorescence (by eye) at the 180 sec. time point were chosen, and rectangular masks created manually over the interiors of these cells. The averaged (over all 10 masks) pixel intensity was defined as “noise”.

[5] = biological target: Trp37→Ile LplA (Escherichia coli, UniProt P32099, W38I); settings: 30 min reaction, 500 μM probe; normalized to TCO2/Trp37→Val
Description: LplA protein was purified as previously described2 and stored at −80° C. in 20 mM Tris-HCl, pH 7.5 supplementated with 10% v/v glycerol. Reactions were quenched with 30 mM EDTA (final concentration) and resolved by HPLC (Varian ProStar) on a C-18 column using a linear gradient of 25-60% acetonitrile in H2O (with 0.1% v/v trifluoroacetic acid) over 14 minutes. Species were detected at 210 nm absorbance. Peaks corresponding to LAP and its trans-cyclooctene adducts were confirmed by ESI mass spectrometry. The extent of conversion was calculated from ratios of peak areas, neglecting minor extinction coefficient changes to LAP due to trans-cyclooctene ligation.
The relative abilities of wild-type and mutant ligases to ligate TCO1-3 onto LplA acceptor peptide (LAP) were measured by an HPLC assay after 30 min. reaction time. […] Errors, ±1 s. d.

[6] = biological target: T2, W37ILplA (Escherichia coli, UniProt P32099, W38I); assay: In vitro screening for Ald and Hyd ligation activity (HPLC); assay type: biochemical, E. coli; settings: 1 μM W37ILplA, 500 μM probe
T2 construct: His6 (N); made in house; host or cells: E. coli
Description: Ligation reactions were assembled as follows: 1 μM of purified LplA mutant (Uttamapinant, et al., 2010), 150 μM synthetic LAP2 peptide ([…]; SEQ ID NO:4), 5 mM ATP, 500 μM of either Ald or Hyd probe, 5 mM magnesium acetate, and 25 mM Na2HPO4 pH 7.2 in a total volume of 20 μL. Reactions were incubated for 5 to 60 min at 30° C. and then quenched with EDTA to a final concentration of 45 mM. Samples were diluted to a total volume of 80 μL in conjugation buffer (10 mM Na2HPO4, 3.2 mM KH2PO4, 2.7 mM KCl, 140 mM NaCl, pH 5.0) and analyzed on a Varian Prostar HPLC using a reverse-phase C18 Microsorb-MV 100 column (250×4.6 mm). Chromatograms were recorded at 210 nm. For analysis of the aldehyde ligation reaction we used a 10-minute gradient of 30-60% acetonitrile in water with 0.1% trifluoroacetic acid under 1 mL/minute flow rate. For analysis of the hydrazine ligation reaction a gradient of 25-60% over 14 minutes with the same solvents was used. Percent conversions were calculated by dividing the product peak area by the sum of (product+starting material) peak areas. Reactions were performed in triplicate (Ald) or duplicate (Hyd) and the average values are shown. Reactions in FIG. 27C were performed using the conditions above with a 70 minute reaction time for Ald and 120 minute reaction time for Hyd.

[7] = biological target: T2, W37ILplA; assay: Measurement of kcat values for Ald and Hyd ligation; assay type: biochemical, E. coli; settings: for Vmax / kcat: 1 μM W37ILplA, 600 μM LAP, 500 μM probe
Description: Values of kcat for W37ILplA ligation of the Ald and Hyd probes onto LAP peptide were determined by measuring the initial reaction rates by HPLC. The conditions used were as follows: 1 μM W37ILplA, 600 μM LAP, 500 μM of Ald or Hyd, 2 mM magnesium acetate, and 25 mM sodium phosphate buffer, pH 7.2. Each initial rate was measured in triplicate and the average value reported. The error shown represents ±1 s.d. The equation kcat=Vmax/[E] was used to determine the kcat value.

[8] = biological target: W37VLplA (Escherichia coli, UniProt P32099, W38V); settings: 500 μM probe, 500 μM LAP, 30° C.
Description: After 5, 10, 15 and 20 minutes, an aliquot was drawn from the reaction vial, quenched with 30 mM EDTA (final concentration) and the product quantified by HPLC as in Table 3. The plot of product concentration against time was fitted to a linear line whose slope corresponds to the initial velocity. The value of kcat was calculated from the Michaelis-Menten equation Vmax=(kcat)([Enzyme]) at substrate-saturating conditions. Measurements were performed in triplicate.

[9] = biological target: T2, W37ILplA; assay type: biochemical, E. coli
Description: Reactions were quenched with 40 mM EDTA (ethylenediaminetetraacetic acid, final concentration). Percent conversion to LAP-azide adduct was determined by HPLC with a C18 reverse phase column, recording absorbance at 210 nm. Elution conditions were 30-60% acetonitrile in water with 0.1% trifluoroacetic acid over 20 minutes at 1.0 mL/min flow rate. The percent conversion was calculated from the ratio of LAP-azide to sum of (unmodified LAP+LAP-azide). Reactions containing 1 μM LplA enzyme, 500 μM azide 9, and 300 μM LAP peptide were incubated at 30° C. for 2 hours. To determine kinetic measurements, reactions containing 100 nM W37ILplA, 25-700 μM azide 9, and 600 μM LAP peptide were incubated at 30° C., before quenching at various time points with EDTA.
Reactions were set up as described in the main text. Aliquots were taken and quenched before product conversion exceeded 5%. To calculate initial rates, we determined the amount of product at each time point by generating a calibration curve using purified LAP and LAP-azide 9 mixed at different ratios. This curve correlated the measured ratio of integrated HPLC peak areas to the actual ratio, i.e. adjusted for any differences in extinction coefficient of LAP vs. LAP-azide 9. Initial rates (Vo) were determined at each azide 9 concentration, by plotting the amount of LAP-azide 9 product against time. The slope of the line gives Vo. Vo values were then plotted against azide 9 concentration in FIG. S3C, and Origin 8.5.1 was used to fit the curve to the Michaelis-Menten equation Vo=Vmax[azide 9]/(Km+[azide 9]). From the Vmax, kcat was calculated using Vmax=kcat[E]total. Measurements of Vo values at each azide 9 concentration were performed in triplicate.

[10] = biological target: T3, W37ILplA / LAP-YFP in HEK cells (Escherichia coli, UniProt P32099, W38I); assay: Azide ligation yield in cells (native gel shift of LAP-YFP), W37ILplA; assay type: cell-based, E. coli
T3 construct: expressed in transfected cells; host or cells: HEK cells
Description: as §1, §2

[11] = 100 nM W37ILplA, 600 μM LAP, 30° C.

T2 sequence (P32099 2-338 W38I): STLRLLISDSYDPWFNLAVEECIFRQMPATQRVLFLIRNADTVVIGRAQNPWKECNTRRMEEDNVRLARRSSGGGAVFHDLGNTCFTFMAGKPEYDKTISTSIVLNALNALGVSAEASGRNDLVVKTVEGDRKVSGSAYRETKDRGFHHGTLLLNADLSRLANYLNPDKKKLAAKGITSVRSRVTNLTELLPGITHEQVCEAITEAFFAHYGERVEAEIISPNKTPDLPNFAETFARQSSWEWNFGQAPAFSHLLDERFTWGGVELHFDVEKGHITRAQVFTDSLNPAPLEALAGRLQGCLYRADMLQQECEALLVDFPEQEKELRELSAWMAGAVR
T3 sequence (P32099 2-338 W38I): as above
T1 sequence (P32099 2-338): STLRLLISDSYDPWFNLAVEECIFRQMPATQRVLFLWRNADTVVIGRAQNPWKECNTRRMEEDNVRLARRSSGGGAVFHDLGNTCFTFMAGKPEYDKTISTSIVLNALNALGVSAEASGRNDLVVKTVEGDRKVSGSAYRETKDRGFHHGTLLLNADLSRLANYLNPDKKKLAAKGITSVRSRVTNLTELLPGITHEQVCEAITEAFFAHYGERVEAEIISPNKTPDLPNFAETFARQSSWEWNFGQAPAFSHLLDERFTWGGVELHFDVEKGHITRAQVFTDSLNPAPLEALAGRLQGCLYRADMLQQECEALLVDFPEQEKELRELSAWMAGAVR
Trp37→Ile LplA, sequence (P32099 2-338 W38I): as the sequence (P32099 2-338 W38I) above
W37VLplA, sequence (P32099 2-338 W38V): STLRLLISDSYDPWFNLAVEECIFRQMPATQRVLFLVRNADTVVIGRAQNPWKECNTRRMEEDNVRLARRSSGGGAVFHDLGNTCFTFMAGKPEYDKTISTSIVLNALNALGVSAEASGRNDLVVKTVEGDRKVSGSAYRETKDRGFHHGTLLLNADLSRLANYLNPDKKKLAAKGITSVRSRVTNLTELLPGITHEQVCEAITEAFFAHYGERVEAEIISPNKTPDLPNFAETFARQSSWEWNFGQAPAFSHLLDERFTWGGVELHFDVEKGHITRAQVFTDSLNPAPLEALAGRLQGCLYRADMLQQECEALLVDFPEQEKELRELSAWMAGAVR

Compound: 2-Azidomethyl-4-chloropyridine [Azide 7]
- ligation yield in cells, repeat of the experiment ([1]; 50 ng WTLplA plasmid): 67%
- ligation yield in cells ([1]; 200 μM azide, 1 hour labeling, densitometry): 73%

- increase in fluorescein emission upon reaction with excess trans-cyclooctene [3]: 13.4 fold
Compound: Aminobenzyltetrazine carboxyfluorescein [Tz1-fluorescein]
- second order rate constant for reaction with TCO2-ligated LAP [2]: 5000 ± 700 M⁻¹ s⁻¹
- time to saturation of signal-to-noise ratio [4]: approximately 3 minutes

Compound: O=C(O)CCCNC(=O)O[C@H]1CC/C=C/CCC1 (stereo in doubt) [TCO1, rel-(1R-4E-pR)-cyclooct-4-ene-1-yl-N-butyric acid carbamate]
- Ligation efficiency (average, normalized product percentage), Trp37→Ile [5]: 0.5 ± 0.4%

Compound: O=Cc1ccc(C(=O)NCCCCC(=O)O)cc1 [Ald]
- reaction completion ([6]; 150 μM LAP peptide, 5 minutes): 62%
- activity of Ald versus Hyd [7]: ten-fold greater activity
- Vmax [7]: 19.7 ± 0.7 µM/min
- kcat [7]: 0.33 ± 0.01 s⁻¹

Compound: O=C(O)CCCCNC(=O)O[C@H]1CC/C=C/CCC1 (stereo in doubt) [TCO2, rel-(1R-4E-pR)-cyclooct-4-ene-1-yl-N-pentanoic acid carbamate]
- Michaelis-Menten kcat of ligation onto LAP [8]: 0.34 ± 0.02 s⁻¹

Compound: [N-]=[N+]=NCCCCCCCCCC(=O)O [azide 9, 10-azidodecanoic acid]
- Km lower than azide 7 ligation catalyzed by wild-type LplA [9]: 4 fold
- improvement in kcat/Km over azide 7 ligation catalyzed by wild-type LplA [9]: 2 fold
- kcat reduced compared to azide 7 ligation catalyzed by wild-type LplA [9]: 1.8 fold
- Km [9, 11]: 35 µM
- kcat [9, 11]: 0.0603 s⁻¹
- ligation yield in cells, repeat of the experiment ([10]; 500 ng W37ILplA plasmid): 89%
- ligation yield in cells ([10]; 200 μM azide, 30 minutes incubation): nearly quantitative

Compound: NNc1ccc(C(=O)NCCCCC(=O)O)cn1 [Hyd]
- reaction completion ([6]; 60 min): 50%
- Vmax [7]: 1.25 ± 0.16 µM/min
- kcat [7]: 0.021 ± 0.003 s⁻¹
